Data published in article PMC10360169 (Frontiers in Immunology, 2023).

Experiments:
HLA-B*15:01 = HLA-B*15:01 (Homo sapiens, UniProt P01889, A329T/A93T/A95T/C349S/D201E/D98Y/E187L/E204Q/E69M/E70A/K202T/N87E/Q94N/R155S/R180W/S121R/S35A/S48A/V306I/V36M/Y140S/Y91S); design: method as in ref [40]-[42] = [40]; 40 Rasmussen M Harndahl M Kristensen A Nielsen I Jorgensen K Stryhn A . Large Scale analysis of peptide - HLA-I stability . ( 2014 ). || [41]; 41 Harndahl M Lamberth K Justesen S Røder G Madsen M Nielsen M . Large Scale analysis of peptide-HLA class I interactions . ( 2007 ). || [42]; 42 Harndahl M Lamberth K Justesen S Røder G Madsen M Sylvester-Hvid C . Large Scale analysis of peptide-HLA class I interactions . ( 2006 ).; settings: IEDB; threshold minimum affinity of 500 nM or minimum half-life of 1 h; ref [40]-[42]; cited from earlier work
Acar3 = type: binding, great reed warbler Acrocephalus arundinaceus; settings: for Stability T½ of Acar3 in complex with the peptide: Table S1, top 94 PSCPL-scoring peptides, SPA, 10µM peptide, 125I β2m, folding over night at 18°C, dissociation measured up to 24 hours at 37°C; for Stability T½ (h), peptide - Acar3: Table S5, half-life estimated from dissociation in scintillation proximity assay
Acar19 = type: binding, great reed warbler Acrocephalus arundinaceus; settings: Table S5, half-life estimated from dissociation in scintillation proximity assay
HLA-A*68:23 = HLA-A*68:23 (Homo sapiens, UniProt P04439, A269V/D185E/E176V/E277Q/E87N/F33Y/G231S/I121R/I166T/I218V/L180W/L300P/L318F/N151K/P208A/P217A/Q86R/R169H/T345S); design: method as in ref [40], [41], [43] = [40]; 40 Rasmussen M Harndahl M Kristensen A Nielsen I Jorgensen K Stryhn A . Large Scale analysis of peptide - HLA-I stability . ( 2014 ). || [41]; 41 Harndahl M Lamberth K Justesen S Røder G Madsen M Nielsen M . Large Scale analysis of peptide-HLA class I interactions . ( 2007 ). || [43]; 43 Harndahl M Lamberth K Røder G Justesen S Madsen M Nielsen M . Large Scale analysis of peptide-HLA class I interactions . ( 2010 ).; settings: IEDB; threshold minimum affinity of 500 nM or minimum half-life of 1 h; ref [40], [41], [43]; cited from earlier work
HLA-B*58:01 = HLA-B*58:01 (Homo sapiens, UniProt P01889, A329T/C349S/D201E/D98Y/E176V/E187L/E204Q/E69T/G107R/I218V/I90N/K202T/L105A/L119I/N104I/N87E/Q89R/Q94S/R106L/R155S/R180L/R86G/S101N/S121R/S35A/S48A/T118I/V127L/V306I/V36M/Y140S/Y91M); settings: IEDB; threshold minimum affinity of 500 nM or minimum half-life of 1 h; ref [40], [41], [43]; cited from earlier work
HLA-B*35:01 = HLA-B*35:01 (Homo sapiens, UniProt P01889, A329T/A93T/A95T/C349S/D201E/D98Y/E176V/E187L/E204Q/E69T/I218V/K202T/L119I/Q94N/R155S/R180L/S121R/S35A/S48A/T118I/V127L/V306I/V36M/Y140S/Y91F); design: method as in ref [40]-[43] = [40]; 40 Rasmussen M Harndahl M Kristensen A Nielsen I Jorgensen K Stryhn A . Large Scale analysis of peptide - HLA-I stability . ( 2014 ). || [41]; 41 Harndahl M Lamberth K Justesen S Røder G Madsen M Nielsen M . Large Scale analysis of peptide-HLA class I interactions . ( 2007 ). || [42]; 42 Harndahl M Lamberth K Justesen S Røder G Madsen M Sylvester-Hvid C . Large Scale analysis of peptide-HLA class I interactions . ( 2006 ). || [43]; 43 Harndahl M Lamberth K Røder G Justesen S Madsen M Nielsen M . Large Scale analysis of peptide-HLA class I interactions . ( 2010 ).; settings: IEDB; threshold minimum affinity of 500 nM or minimum half-life of 1 h; ref [40]-[43]; cited from earlier work
HLA-A*32:15 = HLA-A*32:15 (Homo sapiens, UniProt P04439, A270S/D101S/D185E/E176V/E277Q/E87N/F133L/G103R/G107R/G231S/H175R/I121M/I218V/I322F/K168Q/L105A/L300P/L318F/M331R/P208A/P217A/Q86R/Q94H/R106L/R138Q/S129P/T104I/T323A/T345S/V100E/V321M/V358M); design: method as in ref [40], [41], [43] = [40]; 40 Rasmussen M Harndahl M Kristensen A Nielsen I Jorgensen K Stryhn A . Large Scale analysis of peptide - HLA-I stability . ( 2014 ). || [41]; 41 Harndahl M Lamberth K Justesen S Røder G Madsen M Nielsen M . Large Scale analysis of peptide-HLA class I interactions . ( 2007 ). || [43]; 43 Harndahl M Lamberth K Røder G Justesen S Madsen M Nielsen M . Large Scale analysis of peptide-HLA class I interactions . ( 2010 ).; settings: IEDB; threshold minimum affinity of 500 nM or minimum half-life of 1 h; ref [40], [41], [43]; cited from earlier work
HLA-A*32:07 = HLA-A*32:07 (Homo sapiens, UniProt P04439, A270S/D101S/D185E/E176V/E277Q/F133L/F33S/G103R/G107R/G231S/H175R/I121M/I218V/I322F/K168Q/L105A/L300P/L318F/M331R/P208A/P217A/Q94H/R106L/R138Q/S129P/T104I/T323A/T345S/V100E/V321M/V358M); design: method as in ref [40], [41], [43] = [40]; 40 Rasmussen M Harndahl M Kristensen A Nielsen I Jorgensen K Stryhn A . Large Scale analysis of peptide - HLA-I stability . ( 2014 ). || [41]; 41 Harndahl M Lamberth K Justesen S Røder G Madsen M Nielsen M . Large Scale analysis of peptide-HLA class I interactions . ( 2007 ). || [43]; 43 Harndahl M Lamberth K Røder G Justesen S Madsen M Nielsen M . Large Scale analysis of peptide-HLA class I interactions . ( 2010 ).; settings: IEDB; threshold minimum affinity of 500 nM or minimum half-life of 1 h; ref [40], [41], [43]; cited from earlier work
HLA-A*24:02 = HLA-A*24:02 (Homo sapiens, UniProt P04439, D101N/D140Y/D185E/E176V/E190D/F33S/G103R/G107R/I119L/I121M/I306V/K335N/L105A/L180Q/L300P/N151K/N90K/Q86E/Q94H/R106L/R138H/R89G/T104I/T345S/V100E/W191G/Y123F); settings: below the IEDB thresholds; no reference given; cited from earlier work

## AMSAQAAAF [P1]
HLA-B*15:01
  binding to HLA-B*15:01: binds
Acar3
  Stability T½ of Acar3 in complex with the peptide: 678 min
  Stability T½ (h), peptide - Acar3: 11.3 h

## DYQGLPLEF [9-mer peptide]
Acar19
  Stability T½ (h), peptide - Acar19: 3.5 h
Acar3
  Stability T½ of Acar3 in complex with the peptide: 12 min
  Stability T½ (h), peptide - Acar3: 0.2 h

## LFPELDCFF [9-mer peptide]
Acar19
  Stability T½ (h), peptide - Acar19: 1.6 h

## LMNELGVPF [9-mer peptide]
Acar19
  Stability T½ (h), peptide - Acar19: 0.6 h

## LRHSTAHLL [9-mer peptide]
Acar19
  Stability T½ (h), peptide - Acar19: 0.1 h

## LYIEILRLL [9-mer peptide]
Acar19
  Stability T½ (h), peptide - Acar19: 0.1 h

## LYPTFYCLF [9-mer peptide]
Acar19
  Stability T½ (h), peptide - Acar19: 0.4 h

## MAMGILHTI [9-mer peptide]
Acar19
  Stability T½ (h), peptide - Acar19: 0.1 h

## MFMMIFHFV [9-mer peptide]
Acar19
  Stability T½ (h), peptide - Acar19: 0.4 h

## MPARLWLCL [9-mer peptide]
Acar19
  Stability T½ (h), peptide - Acar19: 0.9 h

## MSNPLTSPI [9-mer peptide]
Acar19
  Stability T½ (h), peptide - Acar19: 6.3 h

## MTMITPPTF [P3]
HLA-A*68:23
  binding to HLA-A*68:23: binding partners
HLA-B*58:01
  binding to HLA-B*58:01: binding partners
HLA-B*35:01
  binding to HLA-B*35:01: binding partners
HLA-A*32:15
  binding to HLA-A*32:15: binding partners
HLA-A*32:07
  binding to HLA-A*32:07: binding partners
HLA-A*24:02
  binding to HLA-A*24:02: weak binding
Acar3
  Stability T½ of Acar3 in complex with the peptide: 618 min
  Stability T½ (h), peptide - Acar3: 10.3 h

## MYLRTIYDL [9-mer peptide]
Acar19
  Stability T½ (h), peptide - Acar19: 4.0 h

## MYMALIAAF [9-mer peptide]
Acar19
  Stability T½ (h), peptide - Acar19: 0.3 h

## NAFHHPSAV [9-mer peptide]
Acar19
  Stability T½ (h), peptide - Acar19: 0.1 h

## NHIRIEYII [9-mer peptide]
Acar19
  Stability T½ (h), peptide - Acar19: 0.4 h

## NPLEIYQEI [9-mer peptide]
Acar19
  Stability T½ (h), peptide - Acar19: 0.8 h

## NPSVLKILL [9-mer peptide]
Acar19
  Stability T½ (h), peptide - Acar19: 0.2 h

## NTARLMAGA [9-mer peptide]
Acar19
  Stability T½ (h), peptide - Acar19: 0.2 h

## NTDEIPELI [9-mer peptide]
Acar19
  Stability T½ (h), peptide - Acar19: 0.2 h

## NTFAAWLPM [9-mer peptide]
Acar19
  Stability T½ (h), peptide - Acar19: 0.6 h

## NVGRILGYV [9-mer peptide]
Acar19
  Stability T½ (h), peptide - Acar19: 0.5 h

## NYFNRMFHF [9-mer peptide]
Acar19
  Stability T½ (h), peptide - Acar19: 0.7 h

## NYMPYVFTL [9-mer peptide]
Acar19
  Stability T½ (h), peptide - Acar19: 14.9 h

## NYNGLLSSI [9-mer peptide]
Acar19
  Stability T½ (h), peptide - Acar19: 19.1 h

## QRASNVFDL [9-mer peptide]
Acar19
  Stability T½ (h), peptide - Acar19: 0.2 h

## QTSSIEGAW [9-mer peptide]
Acar19
  Stability T½ (h), peptide - Acar19: 0.1 h

## QYPAFVLFI [9-mer peptide]
Acar19
  Stability T½ (h), peptide - Acar19: 0.2 h

## RPAPATGAL [9-mer peptide]
Acar19
  Stability T½ (h), peptide - Acar19: 0.3 h

## SFHIIEWLF [9-mer peptide]
Acar19
  Stability T½ (h), peptide - Acar19: 0.2 h

## SFIPIFYQF [9-mer peptide]
Acar19
  Stability T½ (h), peptide - Acar19: 1.2 h

## STAPTGSWF [9-mer peptide]
Acar19
  Stability T½ (h), peptide - Acar19: 0.2 h

## STYGISEDL [9-mer peptide]
Acar19
  Stability T½ (h), peptide - Acar19: 0.1 h

## SYLGLTQPF [9-mer peptide]
Acar19
  Stability T½ (h), peptide - Acar19: 0.2 h

## SYLQAIGIL [9-mer peptide]
Acar19
  Stability T½ (h), peptide - Acar19: 0.1 h

## SYQALAFDI [9-mer peptide]
Acar19
  Stability T½ (h), peptide - Acar19: 0.5 h

## TFMGMNVQF [9-mer peptide]
Acar19
  Stability T½ (h), peptide - Acar19: 0.1 h

## TFMYVFSTF [9-mer peptide]
Acar19
  Stability T½ (h), peptide - Acar19: 0.2 h

## TNTQNNDWF [9-mer peptide]
Acar19
  Stability T½ (h), peptide - Acar19: 0.2 h

## TRAPAPFPL [9-mer peptide]
Acar19
  Stability T½ (h), peptide - Acar19: 0.1 h
Acar3
  Stability T½ (h), peptide - Acar3: 0.1 h

## TTLSIYFLL [9-mer peptide]
Acar19
  Stability T½ (h), peptide - Acar19: 0.1 h

## TYMFTHIDL [9-mer peptide]
Acar19
  Stability T½ (h), peptide - Acar19: 0.1 h

## TYSPALNKM [9-mer peptide]
Acar19
  Stability T½ (h), peptide - Acar19: 0.1 h

## VMKRNFIDF [9-mer peptide]
Acar19
  Stability T½ (h), peptide - Acar19: 0.1 h

## VQHNIKHSF [9-mer peptide]
Acar19
  Stability T½ (h), peptide - Acar19: 0.1 h

## VSFSMVGLF [9-mer peptide]
Acar19
  Stability T½ (h), peptide - Acar19: 0.1 h

## VTNRHEEKF [9-mer peptide]
Acar19
  Stability T½ (h), peptide - Acar19: 0.1 h

## WFGHLASDW [9-mer peptide]
Acar19
  Stability T½ (h), peptide - Acar19: 0.1 h

## WYAPVALLF [9-mer peptide]
Acar19
  Stability T½ (h), peptide - Acar19: 0.2 h

## YFDPANGKF [9-mer peptide]
Acar19
  Stability T½ (h), peptide - Acar19: 0.1 h

## YISPIFIPM [9-mer peptide]
Acar19
  Stability T½ (h), peptide - Acar19: 0.1 h

## YNAELLVAL [9-mer peptide]
Acar19
  Stability T½ (h), peptide - Acar19: 0.2 h

## YQAGISAAL [9-mer peptide]
Acar19
  Stability T½ (h), peptide - Acar19: 0.2 h

## YRSMIAFKL [9-mer peptide]
Acar19
  Stability T½ (h), peptide - Acar19: 0.1 h

## YTMELCGAM [9-mer peptide]
Acar19
  Stability T½ (h), peptide - Acar19: 0.1 h

## YTYPIAHTA [9-mer peptide]
Acar19
  Stability T½ (h), peptide - Acar19: 0.1 h

## YYNAFHWAI [9-mer peptide]
Acar19
  Stability T½ (h), peptide - Acar19: 0.4 h

## YYNAFQWAI [9-mer peptide]
Acar19
  Stability T½ (h), peptide - Acar19: 0.4 h

## YYSNKVFPI [9-mer peptide]
Acar19
  Stability T½ (h), peptide - Acar19: 0.2 h
